Measured values: patent US20250154105A1, “POLYCYCLIC COMPOUND AND USE THEREOF” (TYK MEDICINES, INC., priority 2021, published 2025)

Columns and labels:
YAP-TEAD = YAP-TEAD inhibitor activity by Nano luciferase method (8xGTiiC-nLuc reporter in 293T cells); assay type: cell-based; conditions: Homo sapiens, HEK-293T, 48 hours incubation, read-out: Nano-luciferase detection (IC50)
Text: EXAMPLE 2: YAP-TEAD INHIBITOR ACTIVITY WAS DETECTED BY NANO LUCIFERASE METHOD
(1) Experimental materials and equipments: 293T cells were purchased from NANJING COBIOER BIOSCIENCES CO., LTD. DMEM medium (High sugar, no phenol red, Bio-Channel), DMSO (dimethyl sulfoxide), Lipo6000™ transfection reagent (Beyotime), pGL3B-8xGTiiC-nLuc-CMV-fLuc plasmid, 0.25% EDTA-Tripsin (trypsin digest), 1×PBS (phosphate buffer, PH7.2), 96-well white cell culture plate (PerkinElmer), fetal bovine serum (FBS), 10,000 U/mL penicillin-G/streptomycin, high-speed freezing centrifuge (EPPENDORF 5810R), 37° C. CO2 incubator, Vi-cell® Cell Counter, Envision Microplate Reader (PerkinElmer).
The revived 293T cells were inoculated into a 10 cm culture dish and placed in an incubator with 5% CO2, and cultured at constant temperature of 37° C. To ensure transfection efficiency, cells at logarithmic phase (cell density of approximately 50%-70%) should be used.
On the day before transfection, cells at the logarithmic phase were digested with Trypsin-EDTA, and culture medium was added to terminate digestion. The cell suspension was prepared by blowing and mixing using a pipette.
Cell concentration was measured using Vi-cell, and the cell suspension was diluted to a suspension of 5*10^^5 cells per milliliter. After preparing the cell suspension, the suspension was gently mixed. 10 ml of liquid was added to a 10 cm culture dish. In this way, the number of cells in each 10 cm culture dish was 5*10^^6. The cells were incubated at a constant temperature of 37° C. for 1 day in an incubator with 5% CO2.
Two clean and sterile centrifuge tubes were taken and added with 750 μL opti-MEM Medium without antibiotics and serum, respectively. Then one tube was added with 15 μg Plasmid (pGL3B-8xGTiiC-nLuc-CMV-fLuc), and gently blew and mixed well using a pipette; the other tube was added with Lipo6000 transfection reagent, and gently blew and mixed using a pipette. After standing at room temperature for 5 minutes, the culture solution containing DNA was added gently to the culture solution containing Lipo6000 transfection reagent, and mixed well by gently inverting the centrifuge tube, then standing at room temperature for 5 minutes.
The above mixture was added evenly to a 10 cm culture dish and replaced with fresh complete culture medium after 6 hours of cultivation.
After transfection for 1 day, cells were digested with Trypsin EDTA, and culture medium was added to terminate the digestion. The cell suspension was prepared by blowing and mixing using a pipette.
Cell concentration was measured using Vi-cell, and the cell suspension was diluted to a suspension of 20000 cells per milliliter.
After preparing the cell suspension, the suspension was gently mixed, and added to 96-well plate with 100 μL per well. Thus, the density of the cells to be tested is 2000 cells per well.
The inoculated cell culture plate was placed in the incubator for cultivation, and after about 24 hour, compounds with concentration gradient were added.
10 mM compound stock solution was diluted with culture medium to 50 μM. Compound solution of 50 μM was added to the third column of the deep well plate, 216 μL of culture medium containing 0.5% DMSO was added to the fourth to eleventh columns, successively.
Gradient dilution: taking 100 μL of solution from the third column and adding the solution to the fourth column and mixing well; then taking 100 µL of solution from the fourth column again and adding the solution to the fifth column, repeating this operation until the eleventh column.
Taking 25 μL of compound solution from the deep well plate and adding it to a 96-well culture plate using a multi-channel pipette. Repeating four times on the 96 well plate for each compound. Finally, a concentration gradient of 1:3.16 was formed in the 96-well plate with a maximum concentration of 10,000 nM. The • (5) Addition of Nano Luciferase Detection Reagent and Read […]

[1] = tested on: human pleural mesothelioma cells NCI-H226; experiment: Cell anti-proliferation experiment (CCK8), NCI-H226; assay type: cell-based
Text: TEST EXAMPLE 1 CELL ANTI-PROLIFERATION EXPERIMENT
Determination of proliferation inhibition of YAP-TEAD inhibitor compounds on human pleural mesothelioma cells NCI-H226
Experimental materials and equipments: Human pleural mesothelioma cells NCI-H226 was purchased from NANJING COBIOER BIOSCIENCES CO., LTD. RPMI-1640 medium (Bio-Channel), DMSO (dimethyl sulfoxide), CCK8 (WST-8) Cell Assay Kit (Beyotime), 0.25% EDTA-Tripsin (trypsin digest), 1×PBS (phosphate buffer, PH7.2), 96-well plate (Corning), fetal bovine serum (FBS), 10,000 U/mL penicillin-G/streptomycin, high-speed freezing centrifuge (EPPENDORF 5810R), enzyme-linked immunosorbent assay (Tecan Spark).
1. Cell plating • A) Tumor cells were cultured to 80-90% density in RPMI-1640 (containing 10% FBS and 100 U/mL penicillin-G/streptomycin) under the condition of 37° C., 5% CO2 and saturated humidity. • B) The culture medium was removed from the 10 cm culture dish. • C) Cells were washed with 10 ml 1×PBS. • D) 4 ml of 0.25% EDTA-Tripsin was added to digest pancreatin for 5 minutes in an incubator at 37° C. and 5% CO2. Then the mixture was transferred to a 15 ml centrifuge tube, and centrifuged for 5 minutes at 200 g. The supernatant was discarded to obtain cell precipitation. • E) The cell precipitation was resuspended with 4 ml of […], counted and adjusted to 10,000 cells/ml. • F) The cell suspension was added to a 96-well plate with a volume of 100 μL per well and cultured overnight in an incubator at 37° C. and 5% CO2.
• Compound dilution • A) Preparation of gradient dilution solutions of the tested compounds: the tested compounds was configured to 1 mM stock solution. Then […] of stock solution was dissolved in 1.5 ml of DMSO-free culture solution, and then 3-fold continuous gradient dilution with 0.1% DMSO culture solution was performed to get a total of 9 concentrations. The diluted concentrations of the compound were as follows: 333.33 nM, 111.11 nM, 37.03 nM, 12.35 nM, 4.15 nM, 1.37 nM, 0.46 nM, 0.15 nM • B) After full mixing, 100 μL of culture compound solution was taken to replace the culture solution in the cell culture plate, with 4 duplicated wells at each concentration; • C) The cells were transferred to the incubator to incubate for 3 days.
• A) the cell culture plate was taken out and added with 10 μl of CCK-8 (WST-8) solution per well in the biosafety cabinet; • B) The cell culture plate was put back into the incubator and continued to incubate for 3 hours; • C) 450 nm wavelength was selected to measure absorbance value on TECAN enzyme linked immunosorbent assay detector.
The following formula was used to calculate the cell viability (% Cell Viability); • Cell Viability (%)=[A(Drug-added)-A(Blank)]/[A(0 Drug-added)-A(blank)][…] • A (Drug-added): The absorbance of wells containing cells, CCK8 solution, and drug solution. • A (Blank): The absorbance of wells containing culture medium and CCK8 solution, but without cells. • A (0 Drug-added): The absorbance of wells containing cells, CCK8 solution, but without drug solution. • Cell viability: Cell proliferation viability or cytotoxicity viability was determined by the IC50 value obtained by curve fitting using GraphPad Prism 8 software.

| Compound | IC50 (YAP-TEAD) [nM] | IC50 [1] [nM] |
| --- | --- | --- |
| C[C@H](NC(=O)c1cnc2c(c1)c1cscc1c(=O)n2-c1ccc(C(F)(F)F)nn1)c1ccccn1 [Example T-398] | 1000 to 5000 | 1000 to 5000 |
| Cn1cc2c(=O)n(-c3ccc(C(F)(F)F)cc3)c3ccc(C(=O)O)cc3c2n1 [Example T-110] | 1000 to 5000 | 1000 to 5000 |
| COC[C@@H](C)NC(=O)c1ccc2c(c1)c1cnccc1c(=O)n2-c1ccc(C(F)(F)F)cc1 [Example T-448] | 1000 to 5000 | 1000 to 5000 |
| C[C@H](NC(=O)c1ccc2c(c1)c1nn(C)cc1c(=O)n2-c1ccc(C(F)(F)F)cc1)c1ccc(Cl)cn1 [Example T-130] | 1000 to 5000 | 1000 to 5000 |
| C[C@H](NC(=O)c1ccc2c(c1)c1nn(C)cc1c(=O)n2-c1ccc(C(F)(F)F)cc1)c1cccc(Cl)n1 [Example T-132] | 1000 to 5000 | 1000 to 5000 |
| C[C@H](NC(=O)c1ccc2c(c1)C1CCCC1CN2c1ccc(C(F)(F)F)cc1)c1ccccc1 (some centres unmarked) [Example T-283] | 1000 to 5000 | 1000 to 5000 |
| C[C@H](NC(=O)c1ccc2c(c1)c1c(c(=O)n2-c2ccc(C(F)(F)F)cc2)C(F)CC1)c1ccccn1 (some centres unmarked) [Example T-292] | ≤ 1000 | ≤ 1000 |
| Cn1cc2c(=O)n(-c3ccc(C(F)(F)F)cc3)c3ccc(NC(=O)c4ccccn4)cc3c2n1 [Example T-170] | ≤ 1000 | ≤ 1000 |
| C[C@H](NC(=O)c1ccc2c(c1)-c1nn(C)cc1[C@H](C)N2c1ccc(C(F)(F)F)cc1)c1cccc(N)n1 [Example T-327] | ≤ 1000 | ≤ 1000 |
| C[C@H](NC(=O)c1cnc2c(c1)c1cc(F)ccc1c(=O)n2-c1ccc(C(F)(F)F)cc1)c1ccccn1 [Example T-407] | ≤ 1000 | ≤ 1000 |
| Cc1cccc2c1c(=O)n(-c1ccc(C(F)(F)F)cc1)c1ccc(C(=O)N[C@@H](C)c3ccccn3)cc21 [Example T-257] | ≤ 1000 | ≤ 1000 |
| C[C@H](NC(=O)c1ccc2c(c1)c1nn(C)cc1c(=O)n2-c1ccc(C(F)(F)F)cc1)c1cccc(N)n1 [Example T-148] | ≤ 1000 | ≤ 1000 |
| CNC(=O)Nc1ccc2c(c1)c1nn(C)cc1c(=O)n2-c1ccc(C(F)(F)F)cc1 [Example T-181] | ≤ 1000 | ≤ 1000 |

The next lines start with the values.

| IC50 (YAP-TEAD) [nM] | IC50 [1] [nM] | Compound |
| --- | --- | --- |
| ≤ 1000 | ≤ 1000 | C#CC(=O)Nc1ccc2c(c1)c1nn(C)cc1c(=O)n2-c1ccc(C(F)(F)F)cc1 [Example T-237] |
| ≤ 1000 | ≤ 1000 | Cn1cc2c(=O)n(-c3ccc(C(F)(F)F)cc3)c3ccc(NC(=O)/C=C/CN4CCCC4)cc3c2n1 [Example T-179] |
| ≤ 1000 | ≤ 1000 | CNS(=O)(=O)c1ccc2c(c1)c1ncn(CCO)c1c(=O)n2-c1ccc(C(F)(F)F)cc1 [Example T-46] |
| ≤ 1000 | ≤ 1000 | C[C@H](NC(=O)c1ccc2c(c1)c1nscc1c(=O)n2-c1ccc(C(F)(F)F)cc1)c1cccc(N)n1 [Example T-435] |
| ≤ 1000 | ≤ 1000 | CNS(=O)(=O)c1ccc2c(c1)c1nn(C)cc1c(=O)n2-c1ccc(F)c(F)c1 [Example T-68] |
| ≤ 1000 | ≤ 1000 | C=CC(=O)Nc1ccc2c(c1)c1nn(C)cc1c(=O)n2-c1ccc(C(F)(F)F)cc1 [Example T-172] |
| ≤ 1000 | ≤ 1000 | C[C@H](NC(=O)c1cnc2c(c1)c1cnccc1c(=O)n2-c1ccc(C(F)(F)F)cc1)c1ccccn1 [Example T-406] |
| ≤ 1000 | ≤ 1000 | Cc1cccnc1[C@H](C)NC(=O)c1ccc2c(c1)c1nn(C)cc1c(=O)n2-c1ccc(C(F)(F)F)cc1 [Example T-145] |
| ≤ 1000 | ≤ 1000 | C[C@H](NC(=O)c1cnc2c(c1)c1csnc1c(=O)n2-c1ccc(C(F)(F)F)cc1)c1ccccn1 [Example T-439] |
| ≤ 1000 | ≤ 1000 | C[C@H](NC(=O)c1cnc2c(c1)c1ccccc1c(=O)n2-c1ccc(C(F)(F)F)cc1)c1ccccn1 [Example T-244] |
| ≤ 1000 | ≤ 1000 | CNS(=O)(=O)c1ccc2c(c1)c1nn(C)cc1c(=O)n2-c1cccc(C(F)(F)F)c1 [Example T-58] |
| ≤ 1000 | ≤ 1000 | Cc1ccc2c(c1)c(=O)n(-c1ccc(C(F)(F)F)cc1)c1ccc(C(=O)N[C@@H](C)c3ccccn3)cc21 [Example T-256] |
| ≤ 1000 | ≤ 1000 | C[C@H](NC(=O)c1ccc2c(c1)c1nn(C)cc1c(=O)n2-c1ccc(C(F)(F)F)cc1)c1ccccc1 [Example T-138] |
| ≤ 1000 | ≤ 1000 | CC(C)/C=C/C(=O)Nc1ccc2c(c1)c1nn(C)cc1c(=O)n2-c1ccc(C(F)(F)F)cc1 [Example T-233] |
| ≤ 1000 | ≤ 1000 | Cn1cc2c(=O)n(-c3ccc(C(F)(F)F)cc3)c3ccc(NC(=O)/C=C/CN4CCCCC4)cc3c2n1 [Example T-177] |
| ≤ 1000 | ≤ 1000 | CCOC(=O)Nc1ccc2c(c1)c1nn(C)cc1c(=O)n2-c1ccc(C(F)(F)F)cc1 [Example T-193] |
| ≤ 1000 | ≤ 1000 | COc1cccc([C@H](C)NC(=O)c2ccc3c(c2)c2nn(C)cc2c(=O)n3-c2ccc(C(F)(F)F)cc2)n1 [Example T-134] |
| ≤ 1000 | ≤ 1000 | C[C@H](NC(=O)c1cnc2c(c1)c1ccccc1c(=O)n2-c1ccc(C(F)(F)F)cc1)c1cccc(N)n1 [Example T-437] |
